From paper PMC7996082, “The translocator protein ligands as mitochondrial functional modulators for the potential anti-Alzheimer agents” (Journal of Enzyme Inhibition and Medicinal Chemistry, 2021)

Assays:
[1] = MTT assay: HT22 cell viability with compound alone; format: cell-based, mouse; conditions: mouse, HT22 cells; HT22 cell viability after 24 h of treatment with 5 μM compound, no Aβ
Protocol: To a clear 96-well plate (FALCON), the cultured HT-22 cells were seeded in a number of 5,000 per well 24 h prior to the assay. A solution of each test compound (5 µM, 25 µL) was added to each well. After 24 h of incubation at 37 °C, the cells were treated with a 10 µL of MTT solution (3–(4,5-dimethylthiazol-2-yl)-2,5-diphenyltetrazolium bromide, Sigma-Aldrich), incubated for 2 h at 37 °C, and were treated with 135 µL of MTT solubilising solution (10% Triton-X 100 in isopropanol with 0.1 M HCl) for 2 h at 37 °C. The % values of cell viability were determined by using the optical density (OD) values at 560 nm, and normalised by taking the vehicle control (5 µM of DMSO) as […].

CYP1A2 = target: T1, CYP1A2 (Homo sapiens, UniProt P05177); experiment: CYP inhibition assay (Vivid CYP450 screening kit); format: in vitro ADME; conditions: 10 μM compound
T1 construct: purchased Invitrogen, Madison, WI, USA
T1 sequence (P05177 2-516 limits assumed): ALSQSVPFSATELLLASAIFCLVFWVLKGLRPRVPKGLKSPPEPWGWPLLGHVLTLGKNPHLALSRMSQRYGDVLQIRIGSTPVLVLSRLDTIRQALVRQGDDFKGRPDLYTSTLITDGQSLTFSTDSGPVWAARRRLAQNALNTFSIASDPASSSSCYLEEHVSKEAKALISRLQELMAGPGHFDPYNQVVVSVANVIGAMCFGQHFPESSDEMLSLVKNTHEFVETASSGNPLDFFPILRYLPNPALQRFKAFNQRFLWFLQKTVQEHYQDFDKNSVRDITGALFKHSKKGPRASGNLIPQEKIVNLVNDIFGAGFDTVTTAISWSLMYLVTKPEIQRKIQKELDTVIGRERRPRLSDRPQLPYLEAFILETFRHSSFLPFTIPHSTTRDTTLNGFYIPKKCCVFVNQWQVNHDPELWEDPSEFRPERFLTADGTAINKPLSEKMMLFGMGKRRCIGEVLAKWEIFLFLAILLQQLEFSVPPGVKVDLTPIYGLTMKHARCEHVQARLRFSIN
Protocol: (§1) Human CYP450 (CYP1A2, 2D6, 2C9, 2C19, and 3A4) activities were determined by using the Vivid® CYP450 screening kit (Invitrogen, Madison, WI, USA) in a clear 96-well plate. Five positive controls were used as 10 mM solutions in MeCN for five different CYP450 enzymes: CYP1A2 (α-naphthoflavone), CYP2D6 (quinidine), CYP2C9 (sulfaphenazole), CYP2C19 (lansoprazole), and CYP3A4 (ketoconazole). Each sample (test compounds, positive inhibition controls, and solvent controls) was added into each well with the Master Pre-Mix [CYP450 BACULOSOMES® Reagent (recombinant human CYP450 isozyme and rabbit NADPHP450 reductase) and Regeneration System (3.3 mM glucose-6-phosphate and 0.3 U/ml glucose-6-phosphate dehydrogenase in 100 mM potassium phosphate, pH 8.0)]. The mixture was incubated for 5 min at 37 °C, and the Vivid® CYP substrates and 0.1 mM NADP^+ buffer were added to initiate the CYP450 enzyme reaction. The % remaining activities of CYP450 were measured after 20 min by using a fluorescent plate reader (Flexstation® 3, Molecular Devices, USA).

CYP2C19 = target: T2, CYP2C19 (Homo sapiens, UniProt P33261); experiment: CYP inhibition assay (Vivid CYP450 screening kit); format: in vitro ADME; conditions: 10 μM compound
T2 construct: purchased Invitrogen, Madison, WI, USA
Protocol: as §1

CYP2C9 = target: T3, CYP2C9 (Homo sapiens, UniProt P11712); experiment: CYP inhibition assay (Vivid CYP450 screening kit); format: in vitro ADME; conditions: 10 μM compound
T3 construct: purchased Invitrogen, Madison, WI, USA
Protocol: as §1

CYP2D6 = target: T4, CYP2D6 (Homo sapiens, UniProt P10635); experiment: CYP inhibition assay (Vivid CYP450 screening kit); format: in vitro ADME; conditions: 10 μM compound
T4 construct: purchased Invitrogen, Madison, WI, USA
Protocol: as §1

CYP3A4 = target: T5, CYP3A4 (Homo sapiens, UniProt P08684); experiment: CYP inhibition assay (Vivid CYP450 screening kit); format: in vitro ADME; conditions: 10 μM compound
T5 construct: purchased Invitrogen, Madison, WI, USA
Protocol: as §1

hERG channel = target: T6, hERG channel (Homo sapiens, UniProt Q12809); experiment: hERG inhibition assay (automated patch-clamp, CHO-K1 Tet-On hERG cells); format: cell-based; conditions: patch-clamp, ± SD
T6 construct: host or cells: CHO-K1 Tet-On hERG cells
Protocol: For automated patch-clamp NPC-16 Patchliner (Nanion Technologies, München, Germany) recordings, CHO-K1 Tet-On hERG cells (IonGate Biosciences GmbH, Frankfurt, Germany) were plated into 100-mm cell culture dishes. Whole-cell currents were recorded with the intracellular solution containing: 50 mM KCl, 60 mM KF, 10 mM NaCl, 2 mM MgCl2, 20 mM EGTA and 10 mM HEPES (pH 7.2), and with the extracellular solution containing: 140 mM NaCl, 4 mM KCl, 2 mM CaCl2, 1 mM MgCl2, 5 mM Glucose and 10 HEPES (pH 7.4). To assist stable seal formations, the seal enhancer containing: 80 mM NaCl, 3 mM KCl, 35 mM CaCl2, 10 mM MgCl2 and 10 mM HEPES (pH 7.4) was used only at the seal formation step. Prior to the whole-cell recordings, the external seal enhancing solution was exchanged to the extracellular solution described above. hERG channel currents were recorded using the parallel EPC-10 patch-clamp amplifiers (HEKA Elektronik, Lambrecht/Pfalz, Germany), and low-pass filtered (10 kHz) with a 4-pole Bessel filter. Cell suspension and patch solutions were automatically added onto the four recording wells in the microfabricated disposable chip (NPC-16 Chip, Nanion Technologies, München, Germany). To obtain the inhibitory constants, hERG tail currents were evoked by repolarizing steps to −50 mV for 500 ms preceded by a 500-ms depolarisation potential of +20 mV at a holding potential of −80 mV with a 20-s sweep interval. Whole-cell currents were acquired and digitised at 5 kHz using Patchmaster (HEKA Elektronik, Lambrecht/Pfalz, Germany). The extracellular solution was exchanged to the extracellular solution containing each blocker via four pipette tips of NPC-16 Patchliner using a 4-fold volume of solution (40 µL) with a speed of 4 µL/s, and the exchanged blocker solution was applied for 100–200 s to the patch-clamped cells until blocker binding had reached equilibrium by monitoring hERG tail currents. Whole-cell recordings were analysed using the Patchmaster/Fitmaster (HEKA Elektronik, Lambrecht/Pfalz, Germany), IGOR Pro (WaveMetrics Inc., Portland, OR, USA), and the GraphPad Prism 4.0 (GraphPad Software, Inc., La Jolla, CA, USA) software.

[2] = Liver microsomal stability; format: in vitro ADME; conditions: human, liver microsomes, 1 µM compound, 0.5 mg/mL microsomes, 30 min, 37 °C; read-out: Human Liver Microsomal Stability (% remaining after 30 min)
Protocol: Liver microsomes (human, dog, rat, and mouse; 0.5 mg/mL) were incubated with 1 µM of each test compound in the presence of potassium phosphate buffer (PPB) for 5 min at 37 °C. A solution of the NADPH regeneration system (#44332000, Oriental Yeast Co., Japan) was added to begin metabolic reactions of liver microsomes. The resulting mixtures were incubated for 30 min at 37 °C, and the reaction was terminated by the addition of a cold MeCN solution containing an internal standard (chlorpropamide). The mixture was separated by centrifugation (14,000 rpm for 5 min at 4 °C), and the supernatant was analysed by LC-MS/MS (Shimadzu Nexera XR system and TSQ vantage; Thermo Scientific).

[3] = system: HT-22 (mouse hippocampal cells) cells treated with Aβ; experiment: JC-1 assay: recovery of mitochondrial membrane potential (ΔΨm) after Aβ; format: cell-based; conditions: 5 μM compound, 5 μM Aβ, HT22 cells; 0% = Aβ-induced damaged condition, 100% = normal condition
Protocol: Thirty thousand HT-22 cells per well were seeded into a clear 96-well plate (FALCON) at 200 µL per well one day prior to assay. 750 mM of JC-1 (Stratagene) in DMSO stock solution was dissolved into phenol red-free Opti-MEM (GIBCO) medium to make final concentration of 7.5 mM JC-1 per well. Medium was removed from the plate, and 100 µL per well of JC-1 was added. The sample plates were incubated for 1 h and 15 min at 37 °C and washed twice with 100 µL per well of PBS. Subsequently, cells were treated with a 25 µL solution of each compound at 10 µM in Opti-MEM and incubated at 37 °C for 10 min followed by addition of a 25 µL of Aβ (American peptide, 1-42) solution at 10 µM. Fluorescence was measured at every one hour for three hours at ex/em 530 nm/580 nm (“red”) and ex/em 485 nm/530 nm (“green”) by using the Flexstation® 3 (Molecular Devices, USA) reader. The ratio of green to red fluorescence was calculated and normalised by taking the percent changes using vehicle control as 100%.
The selected 56 compounds were purchased and tested by in vitro cell-based assays. Four different cell-based assays (JC-1, MTT, ATP production, and cellular ROS assays) were carried out sequentially. First, the JC-1 assay was performed to screen all 56 compounds, VH001–VH056 (Supplementary Table S1). Since mitochondrial membrane depolarisation is one of the distinct signs of mPTP opening, the mitochondrial uptake of a fluorescent JC-1 dye (5,59,6,69-tetrachloro-1,19,3,39-tetraethylbenzimidazolocarbocyanine iodide) was measured to evaluate the effects of each compound on the mitochondrial membrane potential (ΔΨm). HT22 cells, a mouse hippocampal cell line, were treated with 5 µM of Aβ, incubated with each compound at the same concentration of 5 µM, and subsequently treated with JC-1. On the basis of changes in the red/green fluorescence intensity ratio between the cells treated with Aβ and control, the percent recovery of ΔΨm for each compound was calculated and normalised to the ΔΨm of healthy cells as 100%.
Compd Structure ∆Ψm at 5 Compd Structure ∆Ψm at 5 […]
a After the treatment of each compound (5 μM) and Aβ (5 μM) in HT22 cell, the increase of fluorescence ratio (green/red) was measured and normalized by taking the change of the ratio between 0% (Aβ-induced damaged condition) and 100% (normal condition in the absence of Aβ).

T4 sequence (P10635 whole entry): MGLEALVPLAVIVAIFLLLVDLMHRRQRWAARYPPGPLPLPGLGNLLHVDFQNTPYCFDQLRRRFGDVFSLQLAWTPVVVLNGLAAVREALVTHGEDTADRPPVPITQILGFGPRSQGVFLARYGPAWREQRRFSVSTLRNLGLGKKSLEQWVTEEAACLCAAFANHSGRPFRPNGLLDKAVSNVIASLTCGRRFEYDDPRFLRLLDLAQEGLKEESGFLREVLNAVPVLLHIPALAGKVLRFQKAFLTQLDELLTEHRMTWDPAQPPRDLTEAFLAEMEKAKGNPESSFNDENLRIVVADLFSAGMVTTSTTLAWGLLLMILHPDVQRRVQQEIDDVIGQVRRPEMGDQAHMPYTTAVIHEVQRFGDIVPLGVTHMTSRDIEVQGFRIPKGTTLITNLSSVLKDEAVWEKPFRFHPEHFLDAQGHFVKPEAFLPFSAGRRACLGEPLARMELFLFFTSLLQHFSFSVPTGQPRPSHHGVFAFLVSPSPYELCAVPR
T6 sequence (Q12809 whole entry): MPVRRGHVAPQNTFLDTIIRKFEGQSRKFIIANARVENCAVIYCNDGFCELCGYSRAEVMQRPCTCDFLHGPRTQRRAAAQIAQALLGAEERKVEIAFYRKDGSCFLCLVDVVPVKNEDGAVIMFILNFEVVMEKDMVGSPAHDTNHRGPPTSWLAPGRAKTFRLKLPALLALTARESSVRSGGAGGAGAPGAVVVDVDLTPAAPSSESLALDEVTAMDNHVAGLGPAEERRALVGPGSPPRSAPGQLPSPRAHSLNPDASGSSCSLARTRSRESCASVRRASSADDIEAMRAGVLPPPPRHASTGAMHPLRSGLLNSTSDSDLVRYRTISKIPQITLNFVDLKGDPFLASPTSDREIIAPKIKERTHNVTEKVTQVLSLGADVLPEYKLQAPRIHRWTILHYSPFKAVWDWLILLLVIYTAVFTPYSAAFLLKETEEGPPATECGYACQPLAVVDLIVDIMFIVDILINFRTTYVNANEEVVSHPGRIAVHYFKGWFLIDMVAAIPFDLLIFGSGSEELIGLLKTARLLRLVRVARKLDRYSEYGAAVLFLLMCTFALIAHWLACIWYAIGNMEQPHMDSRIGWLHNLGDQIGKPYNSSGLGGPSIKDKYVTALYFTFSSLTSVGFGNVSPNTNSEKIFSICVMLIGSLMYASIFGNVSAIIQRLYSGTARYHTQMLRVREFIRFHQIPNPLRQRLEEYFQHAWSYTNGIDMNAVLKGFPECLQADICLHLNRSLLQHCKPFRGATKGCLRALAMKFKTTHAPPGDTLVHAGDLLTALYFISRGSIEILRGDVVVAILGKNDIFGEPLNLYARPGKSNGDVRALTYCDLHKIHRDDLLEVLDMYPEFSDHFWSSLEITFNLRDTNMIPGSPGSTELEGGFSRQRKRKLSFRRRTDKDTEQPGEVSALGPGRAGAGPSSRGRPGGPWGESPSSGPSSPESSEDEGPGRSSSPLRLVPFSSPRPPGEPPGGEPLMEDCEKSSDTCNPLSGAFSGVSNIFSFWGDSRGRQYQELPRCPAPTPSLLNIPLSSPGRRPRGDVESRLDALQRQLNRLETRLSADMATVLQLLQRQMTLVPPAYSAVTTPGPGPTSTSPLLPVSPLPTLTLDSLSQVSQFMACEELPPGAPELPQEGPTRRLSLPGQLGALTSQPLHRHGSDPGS
T2 sequence (P33261 whole entry): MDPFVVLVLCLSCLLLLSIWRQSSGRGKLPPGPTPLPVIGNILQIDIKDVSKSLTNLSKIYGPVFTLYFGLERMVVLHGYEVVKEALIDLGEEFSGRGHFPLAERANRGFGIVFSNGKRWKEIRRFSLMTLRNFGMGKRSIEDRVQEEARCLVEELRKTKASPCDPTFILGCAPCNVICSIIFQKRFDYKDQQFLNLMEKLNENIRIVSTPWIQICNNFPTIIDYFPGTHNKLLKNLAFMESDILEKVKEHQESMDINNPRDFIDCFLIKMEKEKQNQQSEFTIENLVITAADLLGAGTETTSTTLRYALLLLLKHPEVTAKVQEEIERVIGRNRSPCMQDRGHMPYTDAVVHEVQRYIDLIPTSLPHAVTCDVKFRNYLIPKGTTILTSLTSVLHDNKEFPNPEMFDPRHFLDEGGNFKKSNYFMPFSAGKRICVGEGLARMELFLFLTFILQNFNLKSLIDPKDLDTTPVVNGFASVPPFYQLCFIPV
T3 sequence (P11712 whole entry): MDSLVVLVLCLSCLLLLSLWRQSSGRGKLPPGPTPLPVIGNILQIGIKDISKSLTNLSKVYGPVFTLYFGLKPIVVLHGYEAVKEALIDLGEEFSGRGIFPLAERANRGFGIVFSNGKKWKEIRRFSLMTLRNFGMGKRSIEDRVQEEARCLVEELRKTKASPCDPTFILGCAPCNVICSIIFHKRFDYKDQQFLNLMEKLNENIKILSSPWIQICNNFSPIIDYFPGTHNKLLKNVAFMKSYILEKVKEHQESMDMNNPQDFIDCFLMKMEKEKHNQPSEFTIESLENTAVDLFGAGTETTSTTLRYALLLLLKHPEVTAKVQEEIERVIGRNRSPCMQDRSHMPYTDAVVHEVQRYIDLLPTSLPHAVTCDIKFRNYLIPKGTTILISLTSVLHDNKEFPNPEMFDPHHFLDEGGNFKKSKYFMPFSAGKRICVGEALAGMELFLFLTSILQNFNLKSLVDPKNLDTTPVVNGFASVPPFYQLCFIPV
T5 sequence (P08684 2-503 limits assumed): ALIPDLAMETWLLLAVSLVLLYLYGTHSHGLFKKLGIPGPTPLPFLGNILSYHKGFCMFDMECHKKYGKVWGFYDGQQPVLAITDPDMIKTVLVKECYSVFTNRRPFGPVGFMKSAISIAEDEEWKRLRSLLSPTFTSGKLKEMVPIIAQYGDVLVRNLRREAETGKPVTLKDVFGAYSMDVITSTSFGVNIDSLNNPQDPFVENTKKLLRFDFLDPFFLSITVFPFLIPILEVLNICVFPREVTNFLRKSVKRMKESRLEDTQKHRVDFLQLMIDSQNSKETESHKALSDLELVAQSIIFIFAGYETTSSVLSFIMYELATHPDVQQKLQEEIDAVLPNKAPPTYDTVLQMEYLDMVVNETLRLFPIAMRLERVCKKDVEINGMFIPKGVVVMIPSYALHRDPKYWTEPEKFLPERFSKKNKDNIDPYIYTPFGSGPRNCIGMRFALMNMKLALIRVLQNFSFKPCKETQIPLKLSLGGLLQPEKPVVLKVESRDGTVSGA

Row | CYP450 (% remaining Activity at 10 μM) CYP1A2 (CYP1A2) | CYP450 (% remaining Activity at 10 μM) CYP2C19 (CYP2C19) | CYP450 (% remaining Activity at 10 μM) CYP2C9 (CYP2C9) | CYP450 (% remaining Activity at 10 μM) CYP2D6 (CYP2D6) | CYP450 (% remaining Activity at 10 μM) CYP3A4 (CYP3A4) | remaining at 0.5 h, 1 µM [2] | SMILES | viability at 24 h, 5 µM [1] | IC50 (hERG channel) | Recovery of ΔΨm (%) [3]
1 | 150.5% | 35.7% | 32.8% | 82.0% | 56.6% | < 10% | CCOc1ccc(-n2c(SCC(=O)N(CC)Cc3ccccc3)nc3sc4c(c3c2=O)CCN(C(C)=O)C4)cc1 [Compound 33] | 104% | 2.77 ± 1.18 µM | –
2 | 160.6% | 56.8% | 32.9% | 92.6% | 15.0% | 0% | CCOc1ccc(-n2c(SCC(=O)NCc3ccc(Cl)cc3)nc3sc4c(c3c2=O)CCN(C(C)=O)C4)cc1 [Compound 34] | 97% | 4.13 ± 1.39 µM | –
3 | 120.0% | 72.0% | 64.0% | 113.8% | 70.7% | 0.1% | CCOc1ccc(-n2c(SCC(=O)Nc3ccc(Cl)cc3)nc3sc4c(c3c2=O)CCN(C(C)=O)C4)cc1 [Compound 35] | 107% | 30 ± 10.2 µM | –
4 | 123.6% | 92.7% | 50.4% | 98.9% | 17.3% | 0% | CCOc1ccc(-n2c(SCC(=O)NCc3ccc(C)cc3)nc3sc4c(c3c2=O)CCN(C(C)=O)C4)cc1 [Compound 36] | 96% | 22 ± 12.7 µM | –
5 | 98.7% | 52.5% | 105.8% | 61.4% | 44.1% | 82% | CCOc1ccc(-n2c(SCC(=O)N(CC)Cc3ccccc3)nc3sc4c(c3c2=O)CCN(C)C4)cc1 [Compound 51] | 107% | 10 ± 3.6 µM | –
6 | 117.2% | 16.1% | 86.9% | 36.6% | 42.6% | 67.6% | CCOc1ccc(-n2c(SCC(=O)NCc3ccc(Cl)cc3)nc3sc4c(c3c2=O)CCN(C)C4)cc1 [Compound 52] | 80% | 8.6 ± 0.83 µM | –
7 | 69.2% | 31.2% | 43.0% | 59.2% | 23.0% | 49.1% | CCOc1ccc(-n2c(SCC(=O)Nc3ccc(C)cc3)nc3sc4c(c3c2=O)CCN(C)C4)cc1 [Compound 55] | 127% | 5.63 ± 1.75 µM | –
8 | – | – | – | – | – | – | CCc1ccc(-c2cc(C)no2)cc1S(=O)(=O)Nc1cc(OC)cc(OC)c1 [VH021] | – | – | 42%
9 | – | – | – | – | – | – | CCOc1ccc(-c2cc(C(=O)NCCCN(CC)CC)c3ccccc3n2)cc1 [VH022] | – | – | 36%
10 | – | – | – | – | – | – | CCN1CCCC1CNC(=O)c1cc(Nc2ccc(C)c(C)c2)nc2ccccc12 (stereo not drawn) [VH023] | – | – | 62%
11 | – | – | – | – | – | – | CCOc1ccc(-c2cc(C(=O)NCCCN(CC)c3ccccc3)c3ccccc3n2)cc1 [VH024] | – | – | 74%
